From ChEMBL document CHEMBL1144119, “1',2',3',4'-tetradehydrotubulosine, a cytotoxic alkaloid from Pogonopus speciosus” (1999)
Converted amounts (≈) assume the structure as drawn.

Experiments:
Format in all cases: functional
[1] = Cytotoxicity against human BC1 cells; conditions: read-out: ED50 (the source's name)
Lu1 = assay: Cytotoxicity against human Lu1 cells; conditions: read-out: ED50 (the source's name)
Col2 = assay: Cytotoxicity against human Col2 cells; conditions: read-out: ED50 (the source's name)
KB [2] = assay: Cytotoxicity against human KB cells; conditions: read-out: ED50 (the source's name)
KB [3] = assay: Cytotoxicity against human multidrug resistant KB cells in presence of vinblastine; conditions: read-out: ED50 (the source's name)
KB [4] = assay: Cytotoxicity against human multidrug resistant KB cells in absence of vinblastine; conditions: read-out: ED50 (the source's name)
LNCaP = assay: Cytotoxicity against human LNCAP cells; conditions: read-out: ED50 (the source's name)
SW626 = assay: Cytotoxicity against human SW626 cells; conditions: read-out: ED50 (the source's name)
SK-N-SH = assay: Cytotoxicity against human SK-N-SH cells; conditions: read-out: ED50 (the source's name)
M109 = assay: Cytotoxicity against mouse M109 cells; conditions: read-out: ED50 (the source's name)
L1210 = assay: In vivo antitumor activity against mouse L1210 cells assessed as increase in life span at 2 mg/kg
P388 = assay: In vivo antitumor activity against mouse P388 cells assessed as increase in life span at 2 mg/kg

Structure (SMILES)	EC50 [1]	EC50 (Lu1)	EC50 (Col2)	EC50 (KB [2])	EC50 (KB [3])	EC50 (KB [4])	EC50 (LNCaP)	EC50 (SW626)	EC50 (SK-N-SH)	EC50 (M109)	Activity (L1210)	Activity (P388)
CC[C@H]1CN2CCc3cc(OC)c(OC)cc3[C@@H]2C[C@@H]1Cc1nccc2c1[nH]c1ccc(O)cc12	3.9 µg/mL (≈ 8.27 µM)	3.6 µg/mL (≈ 7.63 µM)	2.8 µg/mL (≈ 5.94 µM)	2.2 µg/mL (≈ 4.66 µM)	9 µg/mL	8.8 µg/mL (≈ 18.7 µM)	6.8 µg/mL (≈ 14.4 µM)	6.1 µg/mL (≈ 12.9 µM)	4 µg/mL (≈ 8.48 µM)	4.4 µg/mL (≈ 9.33 µM)	–	–
CC[C@H]1CN2CCc3cc(OC)c(OC)cc3[C@@H]2C[C@@H]1CC1=NCCc2cc(O)c(OC)cc21 [PSYCHOTRINE]	3.4 µg/mL (≈ 7.32 µM)	5.7 µg/mL (≈ 12.3 µM)	4.5 µg/mL (≈ 9.69 µM)	2.8 µg/mL (≈ 6.03 µM)	9 µg/mL	9.4 µg/mL (≈ 20.2 µM)	2.3 µg/mL (≈ 4.95 µM)	13.3 µg/mL (≈ 28.6 µM)	4 µg/mL (≈ 8.61 µM)	9 µg/mL (≈ 19.4 µM)	–	–
CC[C@H]1CN2CCc3cc(OC)c(OC)cc3[C@@H]2C[C@@H]1C[C@H]1NCCc2c1[nH]c1ccc(O)cc21 [TUBULOSINE]	0.1 µg/mL (≈ 0.21 µM)	< 0.001 µg/mL	0.05 µg/mL (≈ 0.105 µM)	< 0.16 µg/mL	0.1 µg/mL	0.1 µg/mL (≈ 0.21 µM)	< 0.16 µg/mL	0.22 µg/mL (≈ 0.463 µM)	0.1 µg/mL (≈ 0.21 µM)	0.1 µg/mL (≈ 0.21 µM)	30%	80%
